Measured values reported in patent US20230277612A1, “SAPONIN DERIVATIVES FOR USE IN MEDICINE” (priority 2020, published 2023).
Where two headings read alike, the source gives them in different places.

Columns and labels:
human red blood cells = test: cells; type: cell-based
Procedure: Red blood cells (RBCs) were isolated from a buffy coat using a Ficoll gradient. The obtained RBC pellet (˜4-5 ml) was washed 2× with 50 ml DPBS (without Ca^2+/Mg^2+, PAN-Biotech GmbH). Cells were pelleted by centrifugation for 10 min, 800×g at RT. RBC were counted and resuspended at 500.000.000 c/ml in DPBS (without Ca^2+/Mg^2+), based on total cell count.
(§1) Saponin dilutions were prepared in DPBS (with Ca^2+/Mg^2+, PAN-Biotech GmbH), at 1.11× final strength. For positive lysis control a 0.02% Triton-X100 solution was prepared in DPBS^+/+. Of all compound solutions 135 μl was dispensed/well in a 96 well V-bottom plate. To this 15 μl RBC suspension was added and mixed shortly (10 sec-600 rpm). The plate was incubated 30 min at RT, with gentle agitation. Afterwards the plate was spun for 10 min at 800×g to pellet the RBC and 100-120 μl supernatant was transferred to a standard 96 wp (96 well-plate).
as §1, with “DPBS+/+.” for “DPBS^+/+.”

HeLa cells = test: cells; type: cell-based
Procedure: (§2) (FIGS. 66a and 66B). Next toxicity was determined, for this the modified saponins were titrated on HeLa and A431 cells. […] Next toxicity was determined, for this the modified saponins were titrated on HeLa and A431 cells.

[1] = Critical micellar concentration (CMC) by ANS fluorescence; type: physicochemical; conditions: for CMC: Table A7, determined in PBS
Procedure: The critical micellar concentration (CMC) of saponins derived from Saponaria officinalis (SO) (Table A7) and derived from Quillaja saponaria (QS) (Table A8, and Table A9) was determined by the method of DeVendittis et al. (A fluorimetric method for the estimation of the critical micelle concentration of surfactants, Analytical Biochemistry, Volume 115, Issue 2, August 1981, Pages 278-286) as follows:
(§3) The emission spectrum of 8-Anilinonaphthalene-1-sulfonic acid (ANS) in either purified water (MQ) or PBS (Dulbecco's PBS+/+) was determined at dry weight concentrations of saponins ranging from 1 to 1400 pM to cover the range below and above the CMC. Above the CMC, the fluorescence yield of ANS increases and the wavelength of maximum emission decreases due to portioning of the fluorescent dye into micelles. Fluorescence yields were recorded on a Fluoroskan Ascent FL (Thermo Scientific) at an excitation wavelength of 355 nm, and an emission wavelength of 460 nm. 6 μg at a concentration of 75.86 pM of ANS were used per sample and measurement.
The critical micellar concentration (CMC) of saponins was determined by the method of DeVendittis et al. (A fluorimetric method for the estimation of the critical micelle concentration of surfactants, Analytical Biochemistry, Volume 115, Issue 2, August 1981, Pages 278-286) as follows:
as §3, with “μM” for “pM”

A431 cells = test: cells; type: cell-based
Procedure: as §2

[2] = Homo sapiens, HeLa, Table A5, saponin alone, read-out: IC50 nM (Toxicity)
[3] = Homo sapiens, HeLa, saponin alone, read-out: IC50 toxicity
[4] = read-out: IC50 hemolytic activity
[5] = Table A12, read-out: IC50 nM (Toxicity)

Compound `CC(=O)OC1C(C)OC(OC2C(C)OC(OC(=O)[C@]34CCC(C)(C)CC3C3=CCC5[C@@]6(C)CC[C@H](OC7OC(C(=O)O)C(O)C(OC8OCC(O)C(O)C8O)C7OC7OC(CO)C(O)C(O)C7O)[C@@](C)(/C=N/NC(=O)CCCCCN7C(=O)C[C@H](SCCO)C7=O)C6CC[C@@]5(C)[C@]3(C)C[C@H]4O)C(OC3OC(C)C(OC4OCC(O)C(OC5OC(CO)C(O)C(O)C5O)C4O)C(O)C3O)C2O)C(O)C1OC1OCC(O)C(O)C1O` (stereo partly shown) [SO1861-Ald-EMCH-blocked] has an IC50 (human red blood cells; Homo sapiens, Erythrocyte, Table A5, read-out: IC50 nM (hemolysis)) of 300000 nM, an IC50 (human red blood cells; Homo sapiens, Erythrocyte, Table A6, read-out: IC50 nM (hemolysis)) of 300000 nM and an IC50 (human red blood cells; Homo sapiens, Erythrocyte, read-out: IC50 hemolytic activity) of 300000 nM. For the same compound, the IC50 (HeLa cells; [2]) was > 100000 nM, the IC50 (HeLa cells; [3]) was > 100000 nM and the “CMC” value [1] was 50 ± 5 µM.

In the case of Aescin [reference compound], the IC50 (human red blood cells; [4]) is reported as 10000 nM, the IC50 (A431 cells; saponin alone, read-out: IC50 toxicity) is reported as > 30000 nM and the IC50 (HeLa cells; [5]) is reported as > 30000 nM.

In the case of `CC(=O)OC1C(C)OC(OC2C(C)OC(OC(=O)[C@]34CCC(C)(C)CC3C3=CCC5[C@@]6(C)CC[C@H](OC7OC(C(=O)NCCN8C(=O)C=CC8=O)C(O)C(OC8OCC(O)C(O)C8O)C7OC7OC(CO)C(O)C(O)C7O)[C@@](C)(C=O)C6CC[C@@]5(C)[C@]3(C)C[C@H]4O)C(OC3OC(C)C(OC4OCC(O)C(OC5OC(CO)C(O)C(O)C5O)C4O)C(O)C3O)C2O)C(O)C1OC1OCC(O)C(O)C1O` (stereo partly shown) [SO1861-Glu-AEM], the IC50 (A431 cells; Homo sapiens, A-431, Table A6, saponin alone, read-out: IC50 nM (Toxicity)) is reported as > 100000 nM, the IC50 (A431 cells; Homo sapiens, A-431, text, saponin alone, read-out: IC50 toxicity) is reported as > 100000 nM and the IC50 (HeLa cells; [2]) is reported as > 100000 nM. For the same compound, the IC50 (HeLa cells; [3]) was > 100000 nM and the “CMC” value [1] was 45 ± 5 µM.

In the case of `CC(=O)OC1C(C)OC(OC2C(C)OC(OC(=O)[C@]34CCC(C)(C)CC3C3=CCC5[C@@]6(C)CC[C@H](OC7OC(C(=O)NC(C)(CO)CO)C(O)C(OC8OCC(O)C(O)C8O)C7OC7OC(CO)C(O)C(O)C7O)[C@@](C)(C=O)C6CC[C@@]5(C)[C@]3(C)C[C@H]4O)C(OC3OC(C)C(OC4OCC(O)C(OC5OC(CO)C(O)C(O)C5O)C4O)C(O)C3O)C2O)C(O)C1OC1OC(C)C(O)C(O)C1O` (stereo partly shown) [SO1861-Glu-AMPD], the “CMC” value [1] is reported as 50 ± 5 µM.

In the case of `CC(=O)OC1C(C)OC(OC2C(C)OC(OC(=O)C34CCC(C)(C)CC3C3=CCC5C6(C)CCC(OC7OC(C(=O)NC(C)(CO)CO)C(O)C(OC8OCC(O)C(O)C8O)C7OC7OC(CO)C(O)C(O)C7O)C(C)(C=NNC(=O)CCCCCN7C(=O)C=CC7=O)C6CCC5(C)C3(C)CC4O)C(OC3OC(C)C(OC4OCC(O)C(OC5OC(CO)C(O)C(O)C5O)C4O)C(O)C3O)C2O)C(O)C1OC1OCC(O)C(O)C1O` (stereo not shown) [SO1861-(Ald-EMCH)-(Glu-AMPD)], the IC50 (human red blood cells; Table A5, read-out: IC50 nM (hemolysis)) is reported as > 1e+06 nM, the IC50 (human red blood cells; Table A6, read-out: IC50 nM (hemolysis)) is reported as > 1e+06 nM and the IC50 (A431 cells; Table A6, saponin alone, read-out: IC50 nM (Toxicity)) is reported as > 100000 nM. The IC50 (HeLa cells; Table A5, saponin alone, read-out: IC50 nM (Toxicity)) was > 100000 nM and the “CMC” value [1] was >30 µM.

In the case of `CC(=O)OC1C(C)OC(OC2C(C)OC(OC(=O)C34CCC(C)(C)CC3C3=CCC5C6(C)CCC(OC7OC(C(=O)O)C(O)C(OC8OCC(O)C(O)C8O)C7OC7OC(CO)C(O)C(O)C7O)C(C)(C=NNC(=O)CCCCCN7C(=O)C=CC7=O)C6CCC5(C)C3(C)CC4O)C(OC3OC(C)C(OC4OCC(O)C(OC5OC(CO)C(O)C(O)C5O)C4O)C(O)C3O)C2O)C(O)C1OC1OCC(O)C(O)C1O` (stereo not shown) [Molecule 2], the “CMC compared to corresponding underivatised saponin” value [1] is reported as “increased CMC”.

With `CC(=O)OC1C(C)OC(OC2C(C)OC(OC(=O)[C@]34CCC(C)(C)CC3C3=CCC5[C@@]6(C)CC[C@H](OC7OC(C(=O)O)C(O)C(OC8OCC(O)C(O)C8O)C7OC7OC(CO)C(O)C(O)C7O)[C@@](C)(C=O)C6CC[C@@]5(C)[C@]3(C)C[C@H]4O)C(OC3OC(C)C(OC4OCC(O)C(OC5OCC(O)C(O)C5O)C4O)C(O)C3O)C2O)C(O)C1OC1OCC(O)C(O)C1O` (stereo partly shown) [SO1832, reference compound] the IC50 (human red blood cells; [4]) was ~10000 nM.

With `CC[C@H](C)[C@H](C[C@H](O)CC(=O)OC1C(C)OC(OC(=O)[C@]23CCC(C)(C)CC2C2=CCC4[C@@]5(C)CC[C@H](OC6OC(C(=O)NC(C)(CO)CO)C(O)C(OC7OCC(O)C(O)C7O)C6OC6OC(CO)C(O)C(O)C6O)[C@@](C)(/C=N/NC(=O)CCCCCN6C(=O)C=CC6=O)C5CC[C@@]4(C)[C@]2(C)C[C@H]3O)C(OC2OC(C)C(OC3OCC(O)C(OC4OCC(O)(CO)C4O)C3O)C(O)C2O)C1O)OC(=O)C[C@@H](O)C[C@H](OC1OC(CO)C(O)C1O)[C@@H](C)CC` (stereo partly shown) [QS21-(Ald-EMCH)-(Glu-AMPD)] the IC50 (human red blood cells; Table A12, read-out: IC50 nM (hemolysis)) was > 300000 nM, the IC50 (human red blood cells; [4]) was > 300000 nM and the IC50 (HeLa cells; [5]) was > 30000 nM.
